Measurements reported in patent US20160047819A1, “METHOD FOR DIAGNOSING VAGINAL INFECTIONS” (priority 2013, published 2016).

System: microbial proteins in vaginal fluid
Assay: MS/MS proteomic analysis of vaginal fluid pools before and after rifaximin/placebo treatment: microbial proteins
Assay type: in vivo
Experimental: Proteomic analysis was performed on 9 pools of vaginal isolates, grouped according to the status of the BV infection: • H pool (from 41 healthy women); BV pool (from 39 BV-affected women); • A-R pool (from 2 women who were in remission after rifaximin treatment-group A); • A-N pool (from 8 women who were not in remission after rifaximin treatment-group A); • B-R pool (from 5 women who were in remission after rifaximin treatment-group B); • B-N pool (from 5 women who were not in remission after rifaximin treatment-group B); • C-R pool (from 4 women who were in remission after rifaximin treatment-group C); • C-N (from 5 women who were not in remission after rifaximin treatment-group C); • D-N (from 10 women who were not in remission after placebo treatment-group D). Scheme of the vaginal fluids collected for testing the diagnostic method is represented in FIG. 1.
In these figures are reported the peptides in the fractionated pools of healthy women, women affected by BV and peptides of women treated with rifaximin. The treatment with rifaximin was at dosage of 100 mg/day for 5 days; (remission, A-R; no remission, A-N), 25 mg/5 days (remission, B-R; no remission, B-N), 100 mg/2 days (remission, C-R; no remission, C-N), and placebo for 5 days (D-N). Two types of comparisons were carried out: (i) between fractionated pools of proteins from vaginal fluid of healthy women (HF) versus fractionated pool of proteins from vaginal fluid of women affected by bacterial vaginosis (BVF); (ii) between whole pools of proteins from vaginal fluid of women affected by BV treated by administering different doses of rifaximin or placebo before (BV) and after (A-R, A-N, B-R, B-N, C-R, C-N, D-N) treatment. Fractioned pools of proteins are obtained, e.g., by separating the proteins by separation on membrane filtration with different membrane porosity, prior to MS/MS analysis.
Nine volumes of acetone: HCl (10:1) were added to the supernatant of the vaginal rinsing and proteins were precipitated by centrifuging at 12000 g for 10 min. The protein pellet was dissolved in 1 mL of 70% ethanol and the sample was spun at 12000 g for 10 min. One mL of acetone was added and the proteins were further precipitated by centrifugation at 12000 g for 5 min. After removing supernatant, pellet was dried by SpeedVac concentrator (Thermo Savant ISS110, Thermo Fisher Scientific, Waltham, Mass.) and then stored at −20° C.
Protein extract was quantified using the 2-D Quant Kit (GE Healthcare, Uppsala, Sweden) according to the manufacturer's instructions.
Patients who were diagnosed for BV at the study visit V1 were included in a multicentre, double-blind, randomised, placebo-controlled study (EudraCT: 2009-011826-32), that was performed to compare the efficacy of different doses of rifaximin vaginal tablets versus placebo for the treatment of BV. The patients underwent a randomisation visit and were distributed into 4 treatment groups: group A received 100 mg rifaximin vaginal tablet once daily for 5 days (n=10), group B received 25 mg rifaximin vaginal tablet once daily for 5 days (n=10), group C received 100 mg rifaximin vaginal tablet once daily for the first 2 days and placebo vaginal tablet for the remaining 3 days (n=9), group D received placebo vaginal tablet once daily for 5 days (n=10). Study medication was administered intra-vaginally at bedtime. After 7 to 10 days from the end of the therapy a follow-up visit (V3) was performed. Remission was evaluated at V3 according to Amsel's criteria (<3) and Gram stain Nugent score (≦3) (Table 1).
Standardized vaginal rinsings with 2 mL of saline were collected for analysis at V1 and V3 by flushing and re-aspirating the fluid through a 22 Gauge needle in the left, central and right upper vaginal vaults. The vaginal rinsings were subsequently stored at −80° C. until use.
MS/MS analysis was carried out for H and BV pools and for the whole BV, A-R, A-N, B-R, B-N, C-R, C-N and D-N pools containing 50 μg of protein each. […]

[1] = up-regulated in all pools (rifaximin and placebo) vs BV

CO[C@H]1/C=C/O[C@@]2(C)Oc3c(C)c(O)c4c(O)c(c5c(nc6cc(C)ccn65)c4c3C2=O)NC(=O)/C(C)=C\C=C\[C@H](C)[C@H](O)[C@@H](C)[C@@H](O)[C@@H](C)[C@H](OC(C)=O)[C@@H]1C [rifaximin]
fold change of Phosphoglycerate kinase from L. gasseri (A-R pool, over-expressed in A-N, B-R, C-R and D-N pools): −22.1 fold | expression change of Pyruvate kinase from L. delbrueckii subsp. bulgaricus (affected only in A-R pool): 1.5 ratio | expression change of Triosephosphate isomerase from L. delbrueckii subsp. bulgaricus (affected only in B-N pool): 2.4 ratio | median expression change of trigger factor from L. brevis (down-regulated in all pools after rifaximin treatment): −2.5 ratio | Ratio X/H Ribosome-recycling factor OS = Bifidobacterium longum subsp. infantis (B7GQS1) (pool A-N after treatment): −1.2 | Ratio X/H Trigger factor OS = Lactobacillus brevis (Q03QN6) (pool A-N after treatment): −2.4 | Ratio X/H Triosephosphate isomerase OS = Lactobacillus delbrueckii subsp. bulgaricus (Q1GB25) (pool A-N after treatment): −1.2 | Ratio X/H UPF0082 protein SAB0618 OS = Staphylococcus aureus (Q2YSR2) (pool A-N after treatment): 5.6 | Ratio X/H Uncharacterized membrane protein YAL018C OS = Saccharomyces cerevisiae (P31379) (pool A-N after treatment): 2.0 | Ratio X/H Uncharacterized protein yphG OS = Escherichia coli (P76585) (pool A-N after treatment): −4.3 | Ratio X/H Ribosome-recycling factor OS = Bifidobacterium longum subsp. infantis (B7GQS1) (pool A-R after treatment): −4.5 | Ratio X/H Trigger factor OS = Lactobacillus brevis (Q03QN6) (pool A-R after treatment): −3.8 | Ratio X/H Triosephosphate isomerase OS = Lactobacillus delbrueckii subsp. bulgaricus (Q1GB25) (pool A-R after treatment): −1.3 | Ratio X/H UPF0082 protein SAB0618 OS = Staphylococcus aureus (Q2YSR2) (pool A-R after treatment): 9.3 | Ratio X/H Uncharacterized membrane protein YAL018C OS = Saccharomyces cerevisiae (P31379) (pool A-R after treatment): 1.1 | Ratio X/H Uncharacterized protein yphG OS = Escherichia coli (P76585) (pool A-R after treatment): 1.1 | Ratio X/H Ribosome-recycling factor OS = Bifidobacterium longum subsp. infantis (B7GQS1) (pool B-N after treatment): −1.1 | Ratio X/H Trigger factor OS = Lactobacillus brevis (Q03QN6) (pool B-N after treatment): −2.1 | Ratio X/H Triosephosphate isomerase OS = Lactobacillus delbrueckii subsp. bulgaricus (Q1GB25) (pool B-N after treatment): 2.4 | Ratio X/H UPF0082 protein SAB0618 OS = Staphylococcus aureus (Q2YSR2) (pool B-N after treatment): 9.2 | Ratio X/H Uncharacterized membrane protein YAL018C OS = Saccharomyces cerevisiae (P31379) (pool B-N after treatment): 2.0 | Ratio X/H Uncharacterized protein yphG OS = Escherichia coli (P76585) (pool B-N after treatment): −1.1 | Ratio X/H Ribosome-recycling factor OS = Bifidobacterium longum subsp. infantis (B7GQS1) (pool B-R after treatment): −2.4 | Ratio X/H Trigger factor OS = Lactobacillus brevis (Q03QN6) (pool B-R after treatment): −2.2 | Ratio X/H Triosephosphate isomerase OS = Lactobacillus delbrueckii subsp. bulgaricus (Q1GB25) (pool B-R after treatment): −1.2 | Ratio X/H UPF0082 protein SAB0618 OS = Staphylococcus aureus (Q2YSR2) (pool B-R after treatment): 10.5 | Ratio X/H Uncharacterized membrane protein YAL018C OS = Saccharomyces cerevisiae (P31379) (pool B-R after treatment): 2.9 | Ratio X/H Uncharacterized protein yphG OS = Escherichia coli (P76585) (pool B-R after treatment): 1.1 | Ratio X/H Ribosome-recycling factor OS = Bifidobacterium longum subsp. infantis (B7GQS1) (pool C-N after treatment): 1.0 | Ratio X/H Trigger factor OS = Lactobacillus brevis (Q03QN6) (pool C-N after treatment): −3.2 | Ratio X/H Triosephosphate isomerase OS = Lactobacillus delbrueckii subsp. bulgaricus (Q1GB25) (pool C-N after treatment): −1.3 | Ratio X/H UPF0082 protein SAB0618 OS = Staphylococcus aureus (Q2YSR2) (pool C-N after treatment): 5.9 | Ratio X/H Uncharacterized membrane protein YAL018C OS = Saccharomyces cerevisiae (P31379) (pool C-N after treatment): 4.2 | Ratio X/H Uncharacterized protein yphG OS = Escherichia coli (P76585) (pool C-N after treatment): −1.1 | Ratio X/H Ribosome-recycling factor OS = Bifidobacterium longum subsp. infantis (B7GQS1) (pool C-R after treatment): −2.8 | Ratio X/H Trigger factor OS = Lactobacillus brevis (Q03QN6) (pool C-R after treatment): −2.7 | Ratio X/H Triosephosphate isomerase OS = Lactobacillus delbrueckii subsp. bulgaricus (Q1GB25) (pool C-R after treatment): −1.4 | Ratio X/H UPF0082 protein SAB0618 OS = Staphylococcus aureus (Q2YSR2) (pool C-R after treatment): 8.9 | Ratio X/H Uncharacterized membrane protein YAL018C OS = Saccharomyces cerevisiae (P31379) (pool C-R after treatment): −1.6 | Ratio X/H Uncharacterized protein yphG OS = Escherichia coli (P76585) (pool C-R after treatment): 1.0 | median down-regulation of Malate dehydrogenase from S. cerevisiae (pools after treatment vs BV): −2.3 fold | median expression change of enolases from L. acidophilus, L. delbrueckii subsp. bulgaricus, L. gasseri (trend of down-regulation in response to antibiotic administration): −2.7 ratio | median expression change of Phosphoglycerate kinase from U. parvum [1]: 5.1 ratio | median expression change of UPF0082 protein SAB0618 from S. aureus [1]: 8.9 ratio
